Experiments:
Type in all cases: physicochemical
[1] = Comparative test of stability (HPLC purity on storage) of amorphous form and crystalline polymorphs of the hydrochloride salt (Test Example 2); conditions: listed as HCl amorphous
Experimental: High performance liquid chromatography (HPLC) was conducted on the Agilent 1100/1200 series HPLC Systems (Agilent, USA) analyzer for the purpose of purity and content analysis including stability test and the like. The analysis conditions of the HPLC are as follows.
To compare the stability of amorphous hydrochloride salt form and crystalline hydrochloride salt polymorphs, each of samples of the polymorphs and amorphous form of the hydrochloride salt of the compound of chemical formula (1) prepared in Examples 4 to 6 was left for 4 weeks under long term conditions (e.g., temperature of 25±2° C. and relative humidity of 60±5%) and accelerated conditions (e.g., temperature of 40° C. and relative humidity of 75%). Each sample was analyzed by high performance liquid chromatography (HPLC) according to the purity measurement conditions of the compound of chemical formula (1).

[2] = Dynamic vapor sorption (DVS) hygroscopicity; conditions: for Hygroscopic degree (DVS): 25° C.
Experimental: Dynamic Vapor Sorption (DVS) analysis was conducted on the DVS advantage (Surface measurement system, United Kingdom) analyzer at 25° C. and relative humidity of 0-90%.
10 mg of sample was placed in the wire mesh steam sorption balance pan and attached to the DVS-advantage dynamic vapor adsorption balance by the Surface Measurement Systems. […] After the completion of the sorption cycle, the sample was dried using the same procedure, during which the relative humidity was returned to a relative humidity […] all the time. The change in weight during the sorption/desorption cycle (repetition of 3 times) was recorded to determine the hygroscopicity of the sample.

[3] = Behaviour under long-term, accelerated and harsh storage conditions (moisture absorption, stability of form)
[4] = Comparative test of solubility of amorphous form and crystalline polymorphs of the hydrochloride salt (Test Example 1); conditions: 25° C., loading of 1.0 mg/mL, LOD 0.1 μg/mL, based on compound of formula (1), listed as HCl cryst. hydrate
Experimental: To compare the solubility of amorphous hydrochloride salt form and crystalline hydrochloride salt polymorphs, each of the polymorphs and amorphous form of the hydrochloride salt of the compound of chemical formula (1) prepared in Examples 4 to 6 was used to prepare samples under the following conditions according to non-ionized water and acidity (pH). Thereafter, each solution was analyzed by high performance liquid chromatography (HPLC) according to the measurement conditions of the content of the compound of chemical formula (1) to measure the dissolved amount (LOD: 0.1 μg/mL) based on the compound of chemical formula (1).
Specifically, 5 mg of each polymorph was added to 5 ml of water and mixed using a Voltamixer at 20-25° C. Thereafter, the filtrate obtained by filtrating using GH Polypro membrane Acrodisc, PALL (pore size 0.2 μm) was diluted with a dilution solvent for high performance liquid chromatography (HPLC) at a ratio of 1/100, to obtain the samples.

## C=CC(=O)N1CCC(Oc2cc3c(Nc4ccc(Cl)c(Cl)c4F)ncnc3cc2OC)CC1 [Example 6, 1-(4-(4-(3,4-dichloro-2-fluorophenylamino)-7-methoxyquinazolin-6-yloxy)piperidin-1-yl)prop-2-en-1-one]
[1]; 25 ± 2° C., 60 ± 5% RH
  Purity (HPLC, %) 3 days: 98.0%
  Purity (HPLC, %) Start: 98.0%
  Purity (HPLC, %) Week 1: 98.0%
  Purity (HPLC, %) Week 2: 97.9%
  Purity (HPLC, %) Week 4: 97.9%
[1]; 40 ± 2° C., 75 ± 5% RH
  Purity (HPLC, %) 3 days: 97.9%
  Purity (HPLC, %) Start: 98.0%
  Purity (HPLC, %) Week 1: 97.9%
  Purity (HPLC, %) Week 2: 97.8%
  Purity (HPLC, %) Week 4: 97.6%
[2]; relative humidity range of 10-90%
  Hygroscopic degree (DVS), in words: very high hygroscopic degree
[3]; 25° C., 60% relative humidity and 40° C., 75% relative humidity
  Moisture absorption on storage: 7-9%

## C=CC(=O)N1CCC(Oc2cc3c(Nc4ccc(Cl)c(Cl)c4F)ncnc3cc2OC)CC1 [Example 2, 1-(4-(4-(3,4-dichloro-2-fluorophenylamino)-7-methoxyquinazolin-6-yloxy)piperidin-1-yl)prop-2-en-1-one]
[2]; relative humidity range of 10%-50%
  Hygroscopic degree (DVS): 0.3-0.5%
[2]; relative humidity range of 50-90%
  Hygroscopic degree (DVS): about 3%

## C=CC(=O)N1CCC(Oc2cc3c(Nc4ccc(Cl)c(Cl)c4F)ncnc3cc2OC)CC1 [Example 4, 1-(4-(4-(3,4-dichloro-2-fluorophenylamino)-7-methoxyquinazolin-6-yloxy)piperidin-1-yl)prop-2-en-1-one]
[4]
  Solubility, Water: <LOD

## C=CC(=O)N1CCC(Oc2cc3c(Nc4ccc(Cl)c(Cl)c4F)ncnc3cc2OC)CC1 [Example 3, 1-(4-(4-(3,4-dichloro-2-fluorophenylamino)-7-methoxyquinazolin-6-yloxy)piperidin-1-yl)prop-2-en-1-one]
[3]; long-term (25° C., 60% RH), accelerated (40° C., 75% RH) and harsh (60° C.) conditions
  Stability under storage conditions (in words): sufficiently stable

## C=CC(=O)N1CCC(Oc2cc3c(Nc4ccc(Cl)c(Cl)c4F)ncnc3cc2OC)CC1 [Example 5, 1-(4-(4-(3,4-dichloro-2-fluorophenylamino)-7-methoxyquinazolin-6-yloxy)piperidin-1-yl)prop-2-en-1-one]
[3]; long-term (25° C., 60% RH) and accelerated (40° C., 75% RH) conditions
  Moisture absorption on storage (in words): did not absorb moisture
